Consider 88 molecules from a melting point compilation (Tetko et al.; mined from patent text by program, amines drawn as free bases though some values may be those of a salt).

As for `O=C(O)C1=Cc2cc(C(F)(F)F)ccc2NC1C(F)(F)F` (stereo not drawn), the melting point (in general, the temperature of the solid-liquid transition) lay within 150 to 156 °C. With `CC(C)OP(=O)(/C=C/CCn1cnc2c(Cl)ncnc21)OC(C)C` the figure was 105 °C.

Take `Nc1ncnc2c1ncn2Cc1oc2ccc(Br)cc2c(=O)c1-c1ccccc1`: the melting point fell in the range of 207 to 209 °C. On to `CC(C)C(=O)n1ccc(-c2ccc(Oc3ccccc3)cc2)n1`, for which the melting point was 49 to 51 °C. `CCN(CC)CCNS(=O)(=O)c1ccc(Nc2ncnc3ccc(Cl)cc23)cc1`: the melting point is 110 to 113 °C. Molecule `O=C(Nc1ccc2[nH]ncc2c1)N[C@@H](c1ccccc1)[C@@H]1CCCCN1` came in with a melting point of 147 to 149 °C.

In turn, `C=C(c1ccc(Cl)cc1)C1(n2ccnc2)CC1` registered a melting point of 94 to 95 °C. For `CCn1c(CC(=O)O)ccc1C(=O)c1ccc(Cl)cc1`, the melting point is 149 to 153 °C. For the molecule `O=C(CCc1ccccc1)N[C@H](Cc1ccc(C(F)(F)F)cc1)[C@@H](O)c1cccc(Oc2ccccc2)c1` (racemic), the melting point is 134 to 135 °C. The molecule `O=S(=O)(c1nc2c3ccccc3c3ccccc3c2[nH]1)C(F)(F)C(F)F` displayed a melting point of 254 to 256 °C. With `CCc1c(Cc2cc(OC)c(OC)c(OC)c2)[nH]c(=O)c(CC(C)C)[n+]1[O-]` the figure was 126 to 127 °C. In turn, `N#CCNC(=O)c1ccnc(F)c1` gave a melting point of 124 to 125 °C. As to `O=[N+]([O-])c1cc(SC(F)(F)F)[nH]c1-c1ccc(Cl)cc1`, the melting point was in the range of 143 to 145 °C. Molecule `C=CCOC(=O)[C@H](Cc1ccccc1)NC(=O)C(F)(F)F` showed a melting point of 44 to 45 °C. Take `COc1ccc(-c2cc3ccccc3[nH]2)cc1NCc1ccc([N+](=O)[O-])cc1`: the melting point is 198 to 199 °C. `CC1(C)CCC(C)(C)c2cc(C(C(=O)O)C(=O)Nc3ccc(C(=O)O)cc3)ccc21` (stereo not drawn) showed a melting point of 213 to 214 °C. With `CCOC(=O)C(O)=CC=C(C#N)c1ccccc1`, the melting point was 189 °C.

`CCCCc1c(C(=O)N(C)Cc2ccc3c(Br)c(OCc4nnn[nH]4)ccc3c2)oc2ccccc12`: the melting point is 180 to 183 °C. As for `CC(=O)Nc1cn2cc(Sc3ccccc3)ccc2n1`, the melting point lay within 257 to 259 °C. With `CCOP(=O)(Cc1cc(=O)[nH]c2cc(Cl)c(Cl)cc12)OCC`, the melting point lay in the range of 219 to 222 °C. For the molecule `Cc1cc(Nc2ccc(Cl)cc2)nc(-n2nc(C)cc2C)n1`, the melting point fell in the range of 181 to 183 °C. `CCN(CC)C(=O)c1ccc(Cl)c(Cl)c1Br`: the melting point was 196 °C. With `O=C(O)C=Cc1cccc(OCc2nc(-c3ccccc3)c(-c3ccccc3)o2)c1` the figure was 145 to 147 °C; with `C=CC[C@H](C(N)=O)[C@@H](CC(C)C)C(=O)NC1N=C(N2CCCCCC2)c2ccccc2N(C)C1=O` (stereo partly drawn), 232 to 237 °C; with `COC(=O)c1cccc2nc(SCCCN3CCN(CC(=O)Nc4c(SC)cc(C)nc4SC)CC3)oc12`, 76 to 79 °C. `COc1cc(/C=C/C(=O)Oc2ccc(NC(C)=O)cc2)ccc1O` returned a melting point of 185 to 195 °C. On to `CC(=O)N(C)Cc1ccc(CCn2cnc3cc(-c4ccc(Cl)cc4)sc3c2=O)cc1`, for which the melting point is 176 to 178 °C. `CC(=O)Nc1ccc(-n2ccnc2S(=O)Cc2ccccc2N(C)C)nc1` (stereo not drawn) gave a melting point of 168 to 170 °C. With `CCCN(c1ccccc1)c1nc(C)nc(Cl)c1[N+](=O)[O-]` the figure was 99.8 to 100 °C; with `Cc1nc2ccccc2c(=O)n1-c1ccccc1C#N`, 165 to 166 °C. As for `O=C1c2ccccc2C(=O)N1C/C=C/CCl`, the figure is 108 to 110 °C; as for `COc1cc(-c2cnc3[nH]c(=O)n(CC4CCCCC4)c3n2)ccn1`, 295 to 297 °C. Consider `N#CC=Cc1ccc(Cl)cc1C(=O)c1ccccc1Cl`, for which the melting point was 137 to 139 °C. Molecule `CCN(CC)C(=O)c1cccc2c(=O)c(C)c(-c3ccc(OC)cc3)oc12` yielded a melting point of 143 to 147 °C. `CCOCCNC(=O)c1cccc(-c2cccc3cc(Cc4cc(F)cc(Cl)c4)sc23)c1` returned a melting point of 79 to 80 °C. As for `Clc1cc2nnnn2c2cnccc12`, the figure is 176 to 177 °C; as for `CCn1cc(C)c(NS(=O)(=O)c2ccc(N)cc2)nc1=O`, 176 to 178 °C.

Molecule `O=C1NCCc2c1c1cccc3c1n2CC3` yielded a melting point of 265 to 267 °C. Regarding `O=C(O)C1CCCc2c(n(Cc3ccc(Cl)cc3)c3ccc(F)cc23)C1` (stereo not drawn), the melting point lay in the range of 185 to 186 °C. In turn, `CCN1C(CNC(=O)c2cc(Cl)c(N)cc2OC)CCC1c1ccccc1` (stereo not drawn) gave a melting point of 187 to 188 °C. The molecule `O=C(C=CC=C(c1ccccc1)c1ccccc1)NCCCCCC(=O)NO` gave a melting point of 167 to 169 °C. `N[C@@H](Cc1ccccc1)[C@@H](O)C(F)(F)C(=O)NCc1ccccc1` yielded a melting point of 128 to 130 °C.

With `COC(=O)c1cc(N2CCN([C@H]3CC[C@@H](c4cn(C)c5ccc(C#N)cc54)CC3)CC2)c2ncccc2c1`, the melting point fell in the range of 153 to 155 °C. `CCCN1N=C2C(=Cc3ccccc3)COCC2C1c1ccccc1` (stereo not drawn) displayed a melting point of 114 to 115 °C.

`CN(C(=O)OC(C)(C)C)c1cc(Oc2ccc(-c3nnn(C(c4ccccc4)(c4ccccc4)c4ccccc4)n3)cc2)ccc1[N+](=O)[O-]` gave a melting point of 161 to 163 °C. As for `O=C(Cc1cncs1)c1ccc(Cl)cc1Cl`, the figure is 75 to 77 °C; as for `CCCCNc1ccc(S(=O)(=O)N2CC(N(Cc3ccccc3)C(=O)OC(C)(C)C)C2)cc1`, 115 to 116 °C. `O=C(Cn1nnnc1-c1ccc2ccccc2c1)OCCO` came in with a melting point of 64 to 66 °C.

`CC(=O)c1ccc(OCc2cccc([N+](=O)[O-])c2)cc1O`: the melting point lay in the range of 117 to 118 °C. Turning to `Cc1cc2ccccc2c(-c2ccc(I)cc2)n1`, the melting point is 146 to 147 °C. For the molecule `Cc1cccc(C(=O)C=C2CCCN2C)c1`, the melting point lay within 60 to 62 °C. For the molecule `Oc1cc(Cl)c(OCc2ccccc2Cl)c(Cl)c1`, the melting point was found to be 108 °C. With `O=S(=O)(CCN1CC(c2ccccc2)C(c2ccc(Cl)cc2)=N1)c1cccc(C(F)(F)F)c1` (stereo not drawn) the figure was 118 to 119 °C; with `Cc1cc(N2CCN(C(=O)N3CCN(S(=O)(=O)c4ccc(Br)cc4)CC3)CC2)ncn1`, 215 to 216 °C; with `COCn1cnc(-c2ccc(OC)cc2)c1-c1ccc(OC)cc1`, 99 to 101 °C. In the case of `O=C(O)C(CCc1ccccc1)NS(=O)(=O)c1ccc2c(c1)S(=O)(=O)c1ccccc1O2` (stereo not drawn), the melting point lay in the range of 170 to 174 °C. Molecule `COc1cc2nc(Cl)n3ncnc3c2cc1OC` gave a melting point of 258 to 260 °C. `CC(C)Oc1ccc(/C=C(\NC(=O)c2ccc(OCCC(F)(F)F)cc2)C(=O)NCCO)cc1`: the melting point lay in the range of 84 to 86 °C. With `O=C1CC(C(F)(F)F)CC(=O)N1c1cc(O)c(Cl)cc1F` the figure was 112 to 114 °C; with `Clc1ccc(Oc2ccc(N3CCNCC3)nc2)cc1`, 98 to 100 °C. The molecule `O=C(NC1CC1)C1CC(=O)N(Cc2ccccc2)C1` (stereo not drawn) yielded a melting point of 94 to 96 °C.

Molecule `CN(C)Cc1cc(-c2ccccc2)c2c(n1)OCCN(Cc1cc(C(F)(F)F)cc(C(F)(F)F)c1)C2=O` displayed a melting point of 186 to 188 °C. Take `CC(CCc1ccccc1)Nc1nc(Cl)nc(NS(C)(=O)=O)n1` (stereo not drawn): the melting point was found to be 143 °C.

`O=[N+]([O-])C=C1C[N+]([O-])=C(c2ccccc2F)c2cc([N+](=O)[O-])ccc2N1` registered a melting point of 216 to 220 °C. In turn, `CCOC(=O)CC(C)(O)c1ccc(-c2ccc(F)cc2F)cc1` (stereo not drawn) had a melting point of 96 to 97 °C. As for `Cc1ncc(-c2ccc(C(F)(F)F)cc2)c(NC2CCCCC2)n1`, the figure is 220 to 225 °C; as for `COC(CCN(C(=O)OC(C)(C)C)c1cc(OCc2ccccc2)c2ncccc2c1I)OC`, 120 to 121 °C. `CC1(C)CCC(C)(C)c2cc(C(O)CNc3ccc(C(=O)O)c(O)c3)ccc21` (stereo not drawn) gave a melting point of 165 to 166 °C. Take `CNC(=O)CC1CCN(Cc2cnc3c(C)c(NC(=O)c4ccc(-c5ccc(F)cc5)cc4)ccc3c2)CC1`: the melting point was in the range of 229 to 231 °C.

On to `O=[N+]([O-])c1cc[nH]c1-c1ccccc1`, for which the melting point lay in the range of 190 to 192 °C. `CC(=O)N1CCC(N(C)C(=O)c2ccc3nonc3c2)CC1` yielded a melting point of 173 to 175 °C.

For `NC(=O)c1ccccc1-n1nnc2cccnc21`, the melting point was more than 340 °C. `COC(=O)c1ccccc1-c1nc2cc(CBr)ccc2o1` registered a melting point of 92 to 95 °C. Consider `CCOC(=O)c1ccc(CC(=O)Nc2csc3nc(C(=O)NCc4cccc(OC)c4)[nH]c(=O)c23)cc1`, for which the melting point was in the range of 218 to 219 °C.

`O=C(c1cccc2nc3n(c12)CCCN3c1ccc(Cl)cc1Cl)C1CC1` yielded a melting point of 189 to 190 °C. As for `O=S1(=O)NC=Nc2cc(C(F)(F)F)c(F)cc21`, the figure is 152 °C; as for `Cc1cc(C)c2c(=O)[nH]c(-c3cc(C)c(OCCO)c(C)c3)nc2c1`, 260 to 261 °C. `CCOC(=O)c1cnccc1CSc1nc(C)c(CC(=O)O)s1` had a melting point of 139 to 141 °C. In turn, `CCCCCCCCCCCC(=O)Oc1c(C(=O)c2ccc(Cl)cc2Cl)c(C)nn1C` registered a melting point of 56 °C. As for `CC[C@H](C)[C@H](OCc1ccccc1)[C@H]1[C@H]([N+](=O)[O-])[C@H](C2CCCCC2)N[C@@H]1C(=O)O`, the melting point was 194 to 196 °C. On to `CC(C)Oc1ccnc2c1c(I)cn2S(=O)(=O)c1ccccc1`, for which the melting point lay within 151 to 153 °C. Molecule `COc1cccc(NC(=O)C(N)=S)c1` came in with a melting point of 135 °C. In turn, `CS(=O)(=O)c1ccc(-c2cc(CO)nn2-c2ccc(Cl)cc2)cc1` displayed a melting point of 96 to 100 °C. With `O=C1CCC(N2Cc3cc(CNC(=O)Nc4ccc(Cl)c(C(F)(F)F)c4)ccc3C2=O)C(=O)N1` (stereo not drawn) the figure was 261 to 263 °C.

`COC(=O)[C@H](CO)NC(=O)[C@@H]1CCCN1C(=O)OCc1ccccc1` returned a melting point of 97 to 100 °C.

In turn, `CCOC(=O)CN(C)C(=O)CCN(C(=O)c1ccc(Cl)cc1)c1ccc(OC)cc1` came in with a melting point of 104 to 106 °C.

The molecule `COC(=O)c1cnc2c(c1)CCCCC2` registered a melting point of 129 to 131 °C. Molecule `CCOC(=O)N1CCc2c(nc3ccccc3c2C)C(Cl)C1` (stereo not drawn) displayed a melting point of 131 °C.
